Results on 32 compounds are retold here after patent publication US9777020B2, “Furo-3-carboxamide derivatives and methods of use” (AbbVie Inc., priority 2014, dated 2017).

TrkA, sequence (P04629 33-796): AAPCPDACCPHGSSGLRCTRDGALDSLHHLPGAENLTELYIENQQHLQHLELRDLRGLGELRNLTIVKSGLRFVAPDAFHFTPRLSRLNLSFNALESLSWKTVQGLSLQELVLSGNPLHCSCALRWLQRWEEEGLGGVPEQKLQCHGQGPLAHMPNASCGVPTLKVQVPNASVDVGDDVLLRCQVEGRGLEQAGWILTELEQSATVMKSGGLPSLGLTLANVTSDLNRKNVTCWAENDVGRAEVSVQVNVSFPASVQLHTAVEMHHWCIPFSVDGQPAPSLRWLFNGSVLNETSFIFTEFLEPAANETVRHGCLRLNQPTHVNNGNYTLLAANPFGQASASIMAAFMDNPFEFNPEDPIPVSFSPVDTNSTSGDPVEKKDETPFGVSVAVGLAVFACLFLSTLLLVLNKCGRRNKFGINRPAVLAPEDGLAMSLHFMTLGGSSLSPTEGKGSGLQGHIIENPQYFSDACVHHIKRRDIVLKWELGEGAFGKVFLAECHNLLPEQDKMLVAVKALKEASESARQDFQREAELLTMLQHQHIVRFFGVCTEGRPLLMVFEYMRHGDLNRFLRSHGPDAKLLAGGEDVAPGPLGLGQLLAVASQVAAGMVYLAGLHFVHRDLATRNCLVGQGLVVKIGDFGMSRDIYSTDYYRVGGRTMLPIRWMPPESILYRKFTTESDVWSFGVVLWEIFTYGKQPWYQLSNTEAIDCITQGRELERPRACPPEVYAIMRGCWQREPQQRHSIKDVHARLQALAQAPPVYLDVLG

The target of the experiment is TrkA (Homo sapiens (Human), UniProt P04629). The experiment is described as follows: TrkA kinase HTRF enzyme inhibition assay. It is filed as biochemical. Particulars: TrkA pre-incubated with 200 μM ATP. The procedure, abridged:
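HTRF ratio read-out of biotin-peptide (125 nM) phosphorylation, 1 h reaction after TrkA (2-10 nM) auto-activation with ATP (200 μM) for 20 min and 10 min compound pre-incubation in 50 mM HEPES pH 7.4 with MgCl2/MnCl2. Percent inhibition from initial rates in duplicate, fitted to single-site equation for IC50.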
In turn, `CC(=O)N1CCN(c2ccc(NC(=O)c3coc4c3C(=O)NC(C)(C)C4)c(OC3C[S+]([O-])C3)n2)CC1` (centres unmarked) [Example 183, N-{6-(4-acetylpiperazin-1-yl)-2-[(1-oxidothietan-3-yl)oxy]pyridin-3-yl}-6,6-dimethyl-4-oxo-4,5,6,7-tetrahydrofuro[3,2-c]pyridine-3-carboxamide] gave an IC50 of 4.8 nM.
The compound `COC(=O)c1n[nH]c2ccc(NC(=O)c3coc4c3C(=O)NCC4)cc12` [Example 48, methyl 5-{[(4-oxo-4,5,6,7-tetrahydrofuro[3,2-c]pyridin-3-yl)carbonyl]amino}-1H-indazole-3-carboxylate] yielded an IC50 of 506 nM.
`CC1(C)CC(=O)c2c(C(=O)Nc3ccc4nn(CCO)cc4c3)coc2C1` [Example 153, N-[2-(2-hydroxyethyl)-2H-indazol-5-yl]-6,6-dimethyl-4-oxo-4,5,6,7-tetrahydro-1-benzofuran-3-carboxamide]: the IC50 is 45.6 nM. Against the preceding compound, the IC50 is about 11-fold lower.
In turn, `Cc1nc2ccc(NC(=O)c3coc4c3C(=O)N(C)CC4)cc2s1` [Example 29, 5-methyl-N-(2-methyl-1,3-benzothiazol-6-yl)-4-oxo-4,5,6,7-tetrahydrofuro[3,2-c]pyridine-3-carboxamide] yielded an IC50 of 169 nM.
Compound `Cn1ncc2cc(NC(=O)c3coc4c3C(=O)CC(C)(C)C4)ccc21` [Example 146, 6,6-dimethyl-N-(1-methyl-1H-indazol-5-yl)-4-oxo-4,5,6,7-tetrahydro-1-benzofuran-3-carboxamide] showed an IC50 of 34.1 nM.
The compound `CCOc1nc(N2CCN(C(C)=O)CC2)ccc1NC(=O)c1coc2c1C(=O)N(CC(O)CO)C(C)(C)C2` (centres unmarked) [Example 119, N-[6-(4-acetylpiperazin-1-yl)-2-ethoxypyridin-3-yl]-5-(2,3-dihydroxypropyl)-6,6-dimethyl-4-oxo-4,5,6,7-tetrahydrofuro[3,2-c]pyridine-3-carboxamide] yielded an IC50 of 6.8 nM.
Then `O=C(Nc1ccc2ncccc2c1)c1coc2c1C(=O)NCC2` [Example 33, 4-oxo-N-(quinolin-6-yl)-4,5,6,7-tetrahydrofuro[3,2-c]pyridine-3-carboxamide], with 111 nM; and `CN1CCc2occ(C(=O)Nc3ccc(C#N)cc3)c2C1=O` [Example 67, N-(4-cyanophenyl)-5-methyl-4-oxo-4,5,6,7-tetrahydrofuro[3,2-c]pyridine-3-carboxamide], with 1080 nM; and `CCOc1nc(N2CCN(C(C)=O)CC2)ccc1NC(=O)c1coc2c1C(=O)N(CC(C)(C)OC(C)=O)CC2` [Example 103, 1-[3-{[6-(4-acetylpiperazin-1-yl)-2-ethoxypyridin-3-yl]carbamoyl}-4-oxo-6,7-dihydrofuro[3,2-c]pyridin-5(4H)-yl]-2-methylpropan-2-yl acetate], with 16.9 nM.
The compound `COc1cc(N2CCN(S(C)(=O)=O)CC2)ccc1NC(=O)c1coc2c1C(=O)NC(C)(C)C2` [Example 125, N-{2-methoxy-4-[4-(methylsulfonyl)piperazin-1-yl]phenyl}-6,6-dimethyl-4-oxo-4,5,6,7-tetrahydrofuro[3,2-c]pyridine-3-carboxamide] showed an IC50 of 35.9 nM.
Then `CN1CCc2occ(C(=O)Nc3ccc4[nH]ncc4c3)c2C1=O` [Example 23, N-(1H-indazol-5-yl)-5-methyl-4-oxo-4,5,6,7-tetrahydrofuro[3,2-c]pyridine-3-carboxamide], with 257 nM; and `CCOc1nc(N2CCN(C(C)=O)CC2)ccc1NC(=O)c1coc2c1C(=O)N([C@@H](C)CO)CC2` [Example 101, N-[6-(4-acetylpiperazin-1-yl)-2-ethoxypyridin-3-yl]-5-[(2S)-1-hydroxypropan-2-yl]-4-oxo-4,5,6,7-tetrahydrofuro[3,2-c]pyridine-3-carboxamide], with 19.5 nM.
Consider `O=C(Nc1ccc(Cl)cn1)c1coc2c1C(=O)NCC2` [Example 42, N-(5-chloropyridin-2-yl)-4-oxo-4,5,6,7-tetrahydrofuro[3,2-c]pyridine-3-carboxamide], for which the IC50 turned out to be 918 nM.
Compound `CN1CCc2occ(C(=O)Nc3ccc(C(N)=O)cc3)c2C1=O` [Example 26, N-(4-carbamoylphenyl)-5-methyl-4-oxo-4,5,6,7-tetrahydrofuro[3,2-c]pyridine-3-carboxamide] returned an IC50 of 202 nM. This IC50 is about 4.5-fold lower than that of the compound before.
The value for `CN1CCc2occ(C(=O)Nc3cnc4ccccc4c3)c2C1=O` [Example 62, 5-methyl-4-oxo-N-(quinolin-3-yl)-4,5,6,7-tetrahydrofuro[3,2-c]pyridine-3-carboxamide] was 827 nM; that for `CCOc1nc(N2CCN(C(C)=O)CC2)ccc1NC(=O)c1coc2c1C(=O)N(CCCO)CC2` [Example 89, N-[6-(4-acetylpiperazin-1-yl)-2-ethoxypyridin-3-yl]-5-(3-hydroxypropyl)-4-oxo-4,5,6,7-tetrahydrofuro[3,2-c]pyridine-3-carboxamide] was 4.7 nM.
Take `Cn1cc2cc(NC(=O)c3coc4c3C(=O)NCC4)ccc2n1` [Example 1, N-(2-methyl-2H-indazol-5-yl)-4-oxo-4,5,6,7-tetrahydrofuro[3,2-c]pyridine-3-carboxamide]: the IC50 was determined as 44.2 nM.
As for `Cc1n[nH]c2ccc(NC(=O)c3coc4c3C(=O)NCC4)cc12` [Example 45, N-(3-methyl-1H-indazol-5-yl)-4-oxo-4,5,6,7-tetrahydrofuro[3,2-c]pyridine-3-carboxamide], the IC50 was determined as 3480 nM.
For the compound `CCOc1nc(N2CCN(C(C)=O)CC2)ccc1NC(=O)c1coc2c1C(=O)NC1(CC1)C2` [Example 117, N-[6-(4-acetylpiperazin-1-yl)-2-ethoxypyridin-3-yl]-4′-oxo-4′,7′-dihydro-5′H-spiro[cyclopropane-1,6′-furo[3,2-c]pyridine]-3′-carboxamide], 5.3 nM corresponded to half-maximal inhibition (IC50).
Take `COc1ccc(NC(=O)c2coc3c2C(=O)NCC3)cn1` [Example 41, N-(6-methoxypyridin-3-yl)-4-oxo-4,5,6,7-tetrahydrofuro[3,2-c]pyridine-3-carboxamide]: it took 1390 nM to reach half-maximal inhibition (IC50).
In turn, `COCCOc1nc(N2CCN(C=O)CC2)ccc1NC(=O)c1coc2c1C(=O)NC(C)(C)C2` [Example 182, N-[6-(4-formylpiperazin-1-yl)-2-(2-methoxyethoxyl)pyridin-3-yl]-6,6-dimethyl-4-oxo-4,5,6,7-tetrahydrofuro[3,2-c]pyridine-3-carboxamide] yielded an IC50 of 17.8 nM.
In the case of `CC(C)Oc1nc(N2C[C@H]3CCN[C@H]3C2)ccc1NC(=O)c1coc2c1C(=O)NC(C)(C)C2` [Example 129, N-{6-[(3 aR,6aR)-hexahydropyrrolo[3,4-b]pyrrol-5(1H)-yl]-2-isopropoxypyridin-3-yl}-6,6-dimethyl-4-oxo-4,5,6,7-tetrahydrofuro[3,2-c]pyridine-3-carboxamide], it took 10.8 nM to reach half-maximal inhibition (IC50).
For `CCOc1nc(N2CCN(C(C)=O)CC2)ccc1NC(=O)c1coc2c1C(=O)N(CCCCO)CC2` [Example 90, N-[6-(4-acetylpiperazin-1-yl)-2-ethoxypyridin-3-yl]-5-(4-hydroxybutyl)-4-oxo-4,5,6,7-tetrahydrofuro[3,2-c]pyridine-3-carboxamide], the IC50 was determined as 4.7 nM.
`CN1CCc2occ(C(=O)Nc3ccc4cn[nH]c4c3)c2C1=O` [Example 64, N-(1H-indazol-6-yl)-5-methyl-4-oxo-4,5,6,7-tetrahydrofuro[3,2-c]pyridine-3-carboxamide] returned an IC50 of 134 nM.
In turn, `COc1cc(N2CCN(C(=O)OC(C)(C)C)CC2)ccc1NC(=O)c1coc2c1C(=O)NCC2` [Example 5, tert-butyl 4-(3-methoxy-4-{[(4-oxo-4,5,6,7-tetrahydrofuro[3,2-c]pyridin-3-yl)carbonyl]amino}phenyl)piperazine-1-carboxylate] gave an IC50 of 54.4 nM.
The value for `CCOc1nc(N2CCN(C(C)=O)CC2)ccc1NC(=O)c1coc2c1C(=O)N(C[C@@H](C)OC(C)=O)CC2` [Example 94, (2R)-1-[3-{[6-(4-acetylpiperazin-1-yl)-2-ethoxypyridin-3-yl]carbamoyl}-4-oxo-6,7-dihydrofuro[3,2-c]pyridin-5(4H)-yl]propan-2-yl acetate] was 1.5 nM; that for `O=C(Nc1cnccn1)c1coc2c1C(=O)NCC2` [Example 37, 4-oxo-N-(pyrazin-2-yl)-4,5,6,7-tetrahydrofuro[3,2-c]pyridine-3-carboxamide] was 3210 nM; that for `CC(=O)N1CCN(c2ccc(NC(=O)c3coc4c3C(=O)NC(C)(C)C4)c(OCC(F)(F)F)n2)CC1` [Example 178, N-[6-(4-acetylpiperazin-1-yl)-2-(2,2,2-trifluoroethoxyl)pyridin-3-yl]-6,6-dimethyl-4-oxo-4,5,6,7-tetrahydrofuro[3,2-c]pyridine-3-carboxamide] was 5.2 nM.
For the compound `CC(=O)N1CCN(c2ccc(NC(=O)c3coc4c3C(=O)NC(C)(C)C4)c(OC(C)C)n2)C[C@@H]1CO` [Example 138, N-{6-[(3R)-4-acetyl-3-(hydroxymethyl)piperazin-1-yl]-2-isopropoxypyridin-3-yl}-6,6-dimethyl-4-oxo-4,5,6,7-tetrahydrofuro[3,2-c]pyridine-3-carboxamide], half-maximal inhibition (IC50) was put at 6.3 nM.
On to `CCOc1nc(CO)ccc1NC(=O)c1coc2c1C(=O)NC(C)(C)C2` [Example 144, N-[2-ethoxy-6-(hydroxymethyl)pyridin-3-yl]-6,6-dimethyl-4-oxo-4,5,6,7-tetrahydrofuro[3,2-c]pyridine-3-carboxamide], for which half-maximal inhibition (IC50) required 49.2 nM.
As for `CC(=O)N1CCN(c2ccc(NC(=O)c3coc4c3C(=O)NC(C)(C)C4)c(O[C@H]3CCOC3)n2)CC1` [Example 181, N-{6-(4-acetylpiperazin-1-yl)-2-[(3S)-tetrahydrofuran-3-yloxy]pyridin-3-yl}-6,6-dimethyl-4-oxo-4,5,6,7-tetrahydrofuro[3,2-c]pyridine-3-carboxamide], the IC50 was 10.2 nM. This IC50 is about 4.8-fold lower than that of the compound before.
Then `CC(C)Oc1nc(N2CCC[C@H](CO)C2)ccc1NC(=O)c1coc2c1C(=O)NC(C)(C)C2` [Example 137, N-{6-[(3S)-3-(hydroxymethyl)piperidin-1-yl]-2-isopropoxypyridin-3-yl}-6,6-dimethyl-4-oxo-4,5,6,7-tetrahydrofuro[3,2-c]pyridine-3-carboxamide], with 13.3 nM.
